Measured values taken from article PMC5290327, “SC83288 is a clinical development candidate for the treatment of severe malaria” (Nature Communications, 2017).

Experiment: in vivo
Assay type: in vivo, rat
Conditions: rats; for ALB / ALB/GLOB / ALP / ALT / AMY / AST / BUN / BUN/CREA / CA / CK / CRE / EOS / GLOB / GLU / HCT / HGB / K+ / MCH / MCHC / MCV / MPV / NA+ / NA/K / PHOS / PLT / RBC / RDW / TBIL / TP / WBC: 24h
Experimental: The maximal-tolerated i.v. bolus dose of SC83288 was at 30 mg kg^−1 body weight (extrapolated initial drug plasma concentration C0 of 65,600 ng ml^−1) and 15 mg kg^−1 body weight (C0 of 27,300 ng ml^−1) in rats and mice, respectively. Observed adverse effects included ataxia, respiratory symptoms and sleepiness. However, all treated animals fully recovered within 30 min after drug application. […] Increasing the dose to 45 mg kg^−1 body weight caused apnoea in rats. The no-observed-adverse-effect level and the no-observed-effect level in rats corresponded to a tested i.v. bolus dose of 22.5 mg kg^−1 body weight (C0 of 49,200 ng ml^−1) and 15 mg kg^−1 body weight (C0 of 32,800 ng ml^−1), respectively.
On the treatment day, all animals were weighed and the dosing volume was calculated for each individual animal according to its actual body weight. All animal were dosed once. Blood samples were taken at different time points and plasma was collected after centrifugation (10,000g, 10 min, 4 °C). Plasma samples were analysed by LC–MS/MS. […] All relevant observations were recorded. The PK studies in cynomolgus monkeys and beagle dogs were performed by the Laboratory of Pharmacology and Toxicology (LPT), Hamburg, and PK and toxicity studies in mice and rats were performed by the 4SC Discovery GmbH, Munich. PK parameters were obtained by a non-compartment analysis, using Kinetica 4.1 (Thermo Scientific).

## COC(=O)N1CCN(C(=N)c2cccc(NC(=O)Nc3ccc(S(=O)(=O)NCc4ccc(S(N)(=O)=O)cc4)cc3)c2)CC1 [SC83288, methyl 4-(imino(3-(3-(4-(N-(4-sulfamoylbenzyl)sulfamoyl)phenyl)ureido)phenyl)methyl) piperazine-1-carboxylate]
22.5 mg/kg
  ALB: 5.0 g/dL
  ALB/GLOB: 6.7 g/dL
  ALP: 399 U l-1
  ALT: 58 U l-1
  AMY: 921 U l-1
  AST: 79 U l-1
  BUN: 17.5 mg/dL
  BUN/CREA: 72.5 mg/dL
  CA: 11.0 mg/dL
  CK: 97 U l-1
  CRE: 0.3 mg/dL
  EOS: 0.3%
  GLOB: 0.8 g/dL
  GLU: 160 mg/dL
  HCT: 39.6%
  HGB: 14.2 g/dL
  K+: 5.3 mmol/L
  MCH: 21.0 pg
  MCHC: 35.9 g/dL
  MCV: 59 µm3
  MPV: 5.9 µm3
  NA+: 135 mmol/L
  NA/K: 25.7 mmol/L
  PHOS: 9.2 mg/dL
  PLT: 847 103 mm-3
  RBC: 6.77 103 mm-3
  RDW: 13.3%
  TBIL: 0.3 mg/dL
  TP: 5.7 g/dL
  WBC: 14.3 103 mm-3
30 mg/kg
  ALB: 5.4 g/dL
  ALB/GLOB: 8.9 g/dL
  ALP: 424 U l-1
  ALT: 58 U l-1
  AMY: 962 U l-1
  AST: 85 U l-1
  BUN: 15.7 mg/dL
  BUN/CREA: 78.3 mg/dL
  CA: 11.2 mg/dL
  CK: 91 U l-1
  CRE: 0.2 mg/dL
  EOS: 0.3%
  GLOB: 0.6 g/dL
  GLU: 170 mg/dL
  HCT: 40.1%
  HGB: 14.3 g/dL
  K+: 5.4 mmol/L
  MCH: 20.5 pg
  MCHC: 35.8 g/dL
  MCV: 57 µm3
  MPV: 5.7 µm3
  NA+: 136 mmol/L
  NA/K: 25.2 mmol/L
  PHOS: 9.0 mg/dL
  PLT: 869 103 mm-3
  RBC: 7.00 103 mm-3
  RDW: 13.4%
  TBIL: 0.3 mg/dL
  TP: 6.0 g/dL
  WBC: 11.2 103 mm-3
i.v. bolus
  no-observed-adverse-effect level: 22.5 mg kg^−1 body weight
  no-observed-effect level: 15 mg kg^−1 body weight
